The target in the experiment is T1, Tyk2/Jak2 (Homo sapiens, UniProt P29597).
T1 construct: Cell Type: Frozen primary phytohemagglutinin (PHA) T-Blasts; endogenous in cells; host or cells: primary PHA T-blasts
As to the kind of experiment: Tyk2 (Tyk2/Jak2 PSTAT4 T-Blast) alpha screen assay: inhibition of IL-12 induced phosphorylation of STAT4 in T-blast cells. It is filed as cell-based. Conditions: IL-12 induced pSTAT4, T-blast cells. On the procedure: 1. TYK2 (TYK2/JAK2 PSTAT4 T-BLAST) ALPHA SCREEN ASSAY
IL-12 is known to transduce its signal through IL-12 receptor via Jak2 and/or Tyk2. For that reason, the activity against Tyk2/Jak2 was measured by determining the inhibition of IL-12 induced phosphorylation of STAT4 in T-blast cells. […] See, e.g., Sohn et al., J. Immunology (2013) 2205-2216.
Cell Type: Frozen primary phytohemagglutinin (PHA) T-Blasts; Culture Medium: Roswell Park Memorial Institute (RPMI) 1640 Medium, 10% heat-inactivated fetal bovine serum (FBS), 1% penicillin/streptomycin (Pen-Strep), 10 mM hydroxyethyl piperazineethanesulfonic acid (HEPES), 10 ng/mL recombinant human interleukin-12 (rhIL-12); Assay Medium: Hank's Balanced Salt Solution (HBSS), no phenol red.
i. Automated 11-point 1:3 dilution curve: 2.5 mM top concentration dispensed in column 1 of a Corning 96-well polypropylene plate. Dimethyl sulfoxide (DMSO) was added to column 12 for high and low controls. Compounds were serially diluted 1:3 by adding 20 uL stock to 40 μL DMSO across the plate via Hamilton Microlab Star instrument.
ii. Media dilution of compounds: Serially diluted compounds were diluted 1:50 in assay medium by adding 4 μL compound to 196 μL assay medium in a Corning 96-well polypropylene plate (now 2% DMSO).
iii. […]
Primary T-Blasts from overnight culture were centrifuged, washed once in assay medium, and pelleted. T-Blasts were counted and resuspended at 12,500,000 cells/mL. […]
Phosphorylated Signal Transducer and Activator of Transcription 4 (pSTAT4) was quantified using the PerkinElmer SureFire Ultra pSTAT4 (Tyrosine 693) Assay. […]
Make master mix of Protein A donor beads using the following volumes per well: 5.88 μL Dilution Buffer and 0.12 μL […]. […] Read plate on Perkin Elmer Envision. […]
Certain compounds listed in Table C were tested for Tyk2 activity following the aforementioned Tyk2 (Tyk2/Jak2 PSTAT4 T-Blast) alpha screen assay and Jak2 (PTATS UT7) alpha screen assay. […] Selectivity for Tyk2 over Jak1, and Tyk2 over Jak2, are calculated from the tabulated activity data.

T1 sequence (P29597 whole entry, other chains not shown): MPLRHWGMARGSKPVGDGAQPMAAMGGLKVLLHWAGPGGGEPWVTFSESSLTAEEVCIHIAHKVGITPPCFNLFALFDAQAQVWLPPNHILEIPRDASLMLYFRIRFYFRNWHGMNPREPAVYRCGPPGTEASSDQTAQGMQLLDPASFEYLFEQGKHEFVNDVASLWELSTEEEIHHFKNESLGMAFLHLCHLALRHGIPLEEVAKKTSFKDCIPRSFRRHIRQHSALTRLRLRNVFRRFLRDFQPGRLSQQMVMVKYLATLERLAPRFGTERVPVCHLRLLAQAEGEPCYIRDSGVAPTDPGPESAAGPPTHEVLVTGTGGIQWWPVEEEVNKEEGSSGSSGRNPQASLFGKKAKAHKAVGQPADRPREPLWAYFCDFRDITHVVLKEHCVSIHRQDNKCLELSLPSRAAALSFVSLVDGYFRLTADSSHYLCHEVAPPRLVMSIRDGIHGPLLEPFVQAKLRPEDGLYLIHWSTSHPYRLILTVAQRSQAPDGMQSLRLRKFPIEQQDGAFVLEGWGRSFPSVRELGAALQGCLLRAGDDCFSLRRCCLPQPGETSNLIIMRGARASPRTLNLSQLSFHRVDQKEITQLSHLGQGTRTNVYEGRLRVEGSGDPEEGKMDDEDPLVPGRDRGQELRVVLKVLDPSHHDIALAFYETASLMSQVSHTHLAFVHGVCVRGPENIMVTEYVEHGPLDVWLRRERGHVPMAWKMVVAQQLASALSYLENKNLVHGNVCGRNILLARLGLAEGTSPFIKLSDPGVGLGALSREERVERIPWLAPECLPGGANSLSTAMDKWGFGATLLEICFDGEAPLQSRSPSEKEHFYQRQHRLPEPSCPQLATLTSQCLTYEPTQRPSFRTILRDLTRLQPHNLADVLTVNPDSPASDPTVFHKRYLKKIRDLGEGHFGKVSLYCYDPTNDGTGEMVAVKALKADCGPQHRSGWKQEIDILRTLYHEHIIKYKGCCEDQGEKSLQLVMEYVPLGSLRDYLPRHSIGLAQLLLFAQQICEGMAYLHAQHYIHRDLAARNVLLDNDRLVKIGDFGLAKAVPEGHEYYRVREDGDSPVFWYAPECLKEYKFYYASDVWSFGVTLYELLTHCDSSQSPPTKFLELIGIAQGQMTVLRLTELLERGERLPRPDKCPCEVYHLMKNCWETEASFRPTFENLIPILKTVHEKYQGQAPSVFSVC

`COCc1cc(-c2cn(C)c3cnc(NC(C)=O)cc23)nc([C@]2([C@H](C)O)CCOC2)c1` [Example 22.3, N-(3-(6-((R)-3-((S)-1-hydroxyethyl)tetrahydrofuran-3-yl)-4-(methoxymethyl)pyridin-2-yl)-1-methyl-1H-pyrrolo[2,3-c]pyridin-5-yl)acetamide]: the 50% effective concentration (EC50) – broadly, the midpoint of the concentration-response curve – is 0.147 µM.

As for `COCc1cc(-c2cn(C)c3cnc(NC(C)=O)cc23)nc([C@]2([C@@H](C)O)CCOC2)c1` [Example 22.4, N-(3-(6-((R)-3-((R)-1-hydroxyethyl)tetrahydrofuran-3-yl)-4-(methoxymethyl)pyridin-2-yl)-1-methyl-1H-pyrrolo[2,3-c]pyridin-5-yl)acetamide], the EC50 was determined as 0.112 µM.

(Values after patent US10508113B2, “Inhibitors of tyrosine kinase 2 mediated signaling” (AbbVie Inc., priority 2018, dated 2019).)
